Source: ChEMBL document CHEMBL5518171, “Curcumin hybrid molecules for the treatment of Alzheimer's disease: Structure and pharmacological activities” (Eur J Med Chem, 2024)

Legend:
[1] = system: N2a; experiment: Antiproliferative activity against mouse Neuro2a cells assessed as reduction in cell viability incubated for 72 hrs by MTT assay; assay type: functional, cell-based
[2] = Antioxidant activity assessed as ROS scavenging activity; assay type: functional
[3] = biological target: T1, Amine oxidase [flavin-containing] B (Homo sapiens, UniProt P27338); experiment: Inhibition of human MAO-B using p-tyramine as substrate at 100 uM incubated for 15 mins by Amplex red and horseradish peroxidase based fluorescence assay; details: 0.25 h
T1 sequence (P27338 whole entry): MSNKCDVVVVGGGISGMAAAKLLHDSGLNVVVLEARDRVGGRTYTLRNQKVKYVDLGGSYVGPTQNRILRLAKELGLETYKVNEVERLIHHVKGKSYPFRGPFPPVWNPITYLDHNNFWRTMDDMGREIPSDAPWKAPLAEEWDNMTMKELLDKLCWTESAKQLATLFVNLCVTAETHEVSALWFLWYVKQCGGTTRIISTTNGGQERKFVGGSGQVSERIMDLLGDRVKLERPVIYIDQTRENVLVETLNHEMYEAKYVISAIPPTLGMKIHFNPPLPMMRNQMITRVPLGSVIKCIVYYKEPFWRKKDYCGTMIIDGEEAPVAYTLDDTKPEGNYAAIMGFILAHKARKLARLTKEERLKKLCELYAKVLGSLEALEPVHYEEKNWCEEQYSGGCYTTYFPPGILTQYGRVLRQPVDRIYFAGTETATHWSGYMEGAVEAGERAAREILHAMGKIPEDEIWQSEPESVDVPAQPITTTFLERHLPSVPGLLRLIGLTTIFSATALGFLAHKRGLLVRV

[4] = biological target: Cholinesterase (Equus caballus) (UniProt P81908); experiment: Inhibition of equine BChE at 100 uM by Ellman's method relative to control
Sequence of Cholinesterase (Equus caballus) (P81908 whole entry): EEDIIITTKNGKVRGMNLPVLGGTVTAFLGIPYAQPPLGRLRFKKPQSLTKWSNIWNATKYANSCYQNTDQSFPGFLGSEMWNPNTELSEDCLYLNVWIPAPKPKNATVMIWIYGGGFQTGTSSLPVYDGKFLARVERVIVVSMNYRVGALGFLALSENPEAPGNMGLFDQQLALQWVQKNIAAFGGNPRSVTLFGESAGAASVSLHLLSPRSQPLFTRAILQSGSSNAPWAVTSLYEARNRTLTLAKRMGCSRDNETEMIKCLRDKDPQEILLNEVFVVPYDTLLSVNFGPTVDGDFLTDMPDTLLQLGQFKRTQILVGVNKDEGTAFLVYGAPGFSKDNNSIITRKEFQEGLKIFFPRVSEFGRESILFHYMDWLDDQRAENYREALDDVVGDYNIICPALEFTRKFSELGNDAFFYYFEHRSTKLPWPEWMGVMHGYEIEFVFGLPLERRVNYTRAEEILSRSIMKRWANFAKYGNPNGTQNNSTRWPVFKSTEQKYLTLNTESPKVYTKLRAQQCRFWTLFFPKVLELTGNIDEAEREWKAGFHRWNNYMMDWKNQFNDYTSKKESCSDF

[5] = biological target: T2, Amine oxidase [flavin-containing] A (Homo sapiens, UniProt P21397); experiment: Inhibition of human MAO-A using p-tyramine as substrate at 100 uM incubated for 15 mins by Amplex red and horseradish peroxidase based fluorescence assay relative to control; details: 0.25 h
T2 sequence (P21397 whole entry): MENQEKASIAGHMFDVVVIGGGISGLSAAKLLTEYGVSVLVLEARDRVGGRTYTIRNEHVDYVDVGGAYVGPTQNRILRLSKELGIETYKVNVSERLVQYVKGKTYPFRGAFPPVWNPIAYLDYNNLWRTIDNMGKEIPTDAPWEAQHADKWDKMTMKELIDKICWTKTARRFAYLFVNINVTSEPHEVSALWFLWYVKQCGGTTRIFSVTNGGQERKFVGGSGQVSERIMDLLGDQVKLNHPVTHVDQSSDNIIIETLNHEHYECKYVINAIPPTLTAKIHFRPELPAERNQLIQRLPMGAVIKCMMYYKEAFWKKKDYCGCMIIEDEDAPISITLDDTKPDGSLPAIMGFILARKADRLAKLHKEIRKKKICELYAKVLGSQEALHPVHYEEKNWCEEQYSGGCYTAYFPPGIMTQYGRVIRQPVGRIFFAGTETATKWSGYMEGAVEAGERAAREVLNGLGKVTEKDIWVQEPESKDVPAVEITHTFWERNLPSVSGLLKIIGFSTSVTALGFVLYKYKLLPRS

[6] = Antioxidant activity assessed as DPPH radical scavenging activity at 80 uM incubated for 1 hr by DPPH assay relative to control; assay type: functional
[7] = Antioxidant activity assessed as DPPH radical scavenging activity st 80 uM incubated for 1 hr by DPPH assay; assay type: functional
[8] = system: SH-SY5Y; experiment: Antioxidant activity in human SH-SY5Y cells assessed as increase in intracellular GSH level at 10 uM incubated for 24 hrs by […] staining based fluorescence analysis; assay type: functional
[9] = Antioxidant activity assessed as DPPH radical scavenging activity by spectrophotometric analysis; assay type: functional
[10] = Neuroprotective activity against human MC65 cells assessed as increase in cell viability incubated for 72 hrs in absence of tetracycline by MTT assay; assay type: functional, cell-based; details: MC65, 72 h
[11] = Antioxidant activity assessed as DPPH radical scavenging activity measured after 30 mins by UV-visible spectrophotometric analysis; assay type: functional
[12] = biological target: Acetylcholinesterase (Electrophorus electricus, UniProt O42275)
Sequence of Acetylcholinesterase (O42275 whole entry): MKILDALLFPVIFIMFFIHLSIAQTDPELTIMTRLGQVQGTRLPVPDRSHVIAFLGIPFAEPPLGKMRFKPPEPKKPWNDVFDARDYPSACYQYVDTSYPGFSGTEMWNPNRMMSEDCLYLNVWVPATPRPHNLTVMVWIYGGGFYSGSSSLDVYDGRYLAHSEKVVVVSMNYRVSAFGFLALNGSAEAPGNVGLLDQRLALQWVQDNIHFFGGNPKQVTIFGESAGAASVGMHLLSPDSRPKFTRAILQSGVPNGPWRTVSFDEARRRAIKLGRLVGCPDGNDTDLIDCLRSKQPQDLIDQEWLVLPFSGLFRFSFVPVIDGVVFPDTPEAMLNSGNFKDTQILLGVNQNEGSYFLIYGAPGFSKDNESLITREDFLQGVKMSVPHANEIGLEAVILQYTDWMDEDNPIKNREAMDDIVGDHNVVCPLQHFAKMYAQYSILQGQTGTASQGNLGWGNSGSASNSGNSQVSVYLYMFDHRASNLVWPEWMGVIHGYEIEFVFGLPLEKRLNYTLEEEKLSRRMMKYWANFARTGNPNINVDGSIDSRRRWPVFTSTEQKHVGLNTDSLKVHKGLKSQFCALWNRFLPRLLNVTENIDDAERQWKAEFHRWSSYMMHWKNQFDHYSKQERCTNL
Description: Inhibition of Electric eel AChE using acetylthiocholine iodide as substrate incubated for 15 mins by Ellman's method

[13] = biological target: Cholinesterase (Equus caballus, UniProt P81908); experiment: Inhibition of equine BChE using BTCh as substrate incubated for 5 mins by Ellmans method
Sequence of Cholinesterase (P81908 whole entry): as the sequence (P81908 whole entry) above

For `COc1ccc(/C=C/C(=O)CCCCN2CC[C@@]34C=C[C@H](O)C[C@@H]3Oc3c(OC)ccc(c34)C2)cc1`, which IC50 [1] is on record?
The IC50 was 50000 nM.

For `CCCCN1C(=O)/C(=C(O)/C=C/c2cc(OC)c(OC)c(OC)c2)C(C(=O)OCC)=C1C`, which Activity [2] is on record?
The Activity was 61%.

Which results are given for `O=C(/C=C/c1cc(O)c(O)cc1O)CC(=O)/C=C/c1cc2ccc(O)c(O)c2oc1=O`?
inhibition at 100 µM [3]: 45.8%; inhibition [4]: 43.3%; inhibition at 100 µM [5]: 60.9%

For `O=C(/C=C/c1ccc(O)c(O)c1)NN=C1CCN(Cc2ccccc2)CC1`, which Activity [6] is on record?
Its Activity is 45%.

And the Activity [7]?
The Activity was 45%.

And the Activity [8]?
The Activity was 33%.

With `CCCCN1C(=O)/C(=C(O)/C=C/c2ccc(O)c(OC)c2)C(C(=O)OC)=C1C` as the molecule, how does the Activity [9] read?
Its Activity is 8.87%.

Which EC50 [10] does the source give for `COc1ccc2[nH]cc(CCNC(=O)CC(=O)/C=C/c3ccc(O)c(OC)c3)c2c1` here?
Its EC50 is 134 nM.

With `CCCCN1C(=O)/C(=C(O)/C=C/c2cc(OC)c(OC)c(OC)c2)C(C(=O)OC)=C1C` as the molecule, how does the Activity [11] read?
The Activity was 10.8%.

Which Activity [6] does the source give for `COc1cc(/C=C/C(=O)NN=C2CCN(Cc3ccccc3)CC2)ccc1O` here?
The Activity was 53.4%.

What about the Activity [7] of the same molecule?
Its Activity is 53.4%.

And the Activity [8]?
The Activity was 34%.

Which results are given for `COc1cc(/C=C/C(=O)OCCCCCN(C)Cc2cccc(OC(=O)N(C)C)c2)ccc1O`?
IC50 [12]: 19.7 nM; IC50 [13]: 590 nM

With `COc1ccc2[nH]cc(CCNC(=O)CC(=O)/C=C/c3ccc(O)cc3)c2c1` as the molecule, how does the EC50 [10] read?
The EC50 was 23.1 nM.
